The results in this text go back to patent US9550792B2, “Polycyclic substituted pyrazole kinase activity inhibitors and use thereof” (priority 2013, dated 2017).

What all share (assay type): biochemical
Experiment [1] addresses T1, CDK2/A (Homo sapiens, UniProt P24941).
T1 construct: purchased
Put plainly: Inhibitory activity to CDK2 (FRET). To be noted: read-out: CDK2 inhibition % (1 × 10^−6 mol/L). Summed up:
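FRET-based kinase assay using CDK2/cyclin A with peptide substrate in HEPES pH 7.5 buffer (MgCl2, BRIJ-35, EDTA). The kinase reaction ran 1 h, followed by development reagent for 1 h and a stop step. Inhibition calculated relative to phospho-peptide (100%) and ATP-free (0%) phosphorylation controls.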

Experiment [2] concerns the target T2, Aurora A (Homo sapiens, UniProt O14965).
T2 construct: purchased
T2 sequence (O14965 1-403): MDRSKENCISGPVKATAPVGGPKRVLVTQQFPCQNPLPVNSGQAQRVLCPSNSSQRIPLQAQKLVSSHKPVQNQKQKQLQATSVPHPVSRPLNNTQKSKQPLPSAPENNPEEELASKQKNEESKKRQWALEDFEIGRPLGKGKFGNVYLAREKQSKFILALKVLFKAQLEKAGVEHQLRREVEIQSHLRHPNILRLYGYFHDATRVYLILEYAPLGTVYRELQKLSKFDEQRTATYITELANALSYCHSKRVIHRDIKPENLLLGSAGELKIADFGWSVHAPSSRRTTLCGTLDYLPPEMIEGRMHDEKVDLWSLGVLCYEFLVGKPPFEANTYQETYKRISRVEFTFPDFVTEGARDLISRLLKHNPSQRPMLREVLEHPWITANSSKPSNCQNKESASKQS
Kind of experiment: Inhibitory activity to Aurora A (FRET). Conditions: read-out: Aurora A inhibition % (1 × 10^−6 mol/L). Summed up: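 FRET kinase assay of Aurora A with peptide substrate in HEPES pH 7.5, BRIJ-35, MgCl2, EDTA; 1 h reaction, then 1 h development before stop. Ex 400 nm, emission 445 nm (coumarin) and 520 nm (fluorescein); 0% and 100% phosphorylation controls set inhibition scale.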

Experiment [3] deals with CDK1/cyclin A (Homo sapiens, UniProt P06493). Kind of experiment: Kinase IC50, 33P labeled isotope method. To be noted: 20 μM ATP; read-out: IC50* CDK1/cyclin A.
Experiment [4] deals with CDK1/cyclin B (Homo sapiens, UniProt P06493). Kind of experiment: Kinase IC50, 33P labeled isotope method. Conditions: 20 μM ATP; read-out: IC50* CDK1/cyclin B.
Chain of CDK1/cyclin B (P06493 4-287 limits assumed): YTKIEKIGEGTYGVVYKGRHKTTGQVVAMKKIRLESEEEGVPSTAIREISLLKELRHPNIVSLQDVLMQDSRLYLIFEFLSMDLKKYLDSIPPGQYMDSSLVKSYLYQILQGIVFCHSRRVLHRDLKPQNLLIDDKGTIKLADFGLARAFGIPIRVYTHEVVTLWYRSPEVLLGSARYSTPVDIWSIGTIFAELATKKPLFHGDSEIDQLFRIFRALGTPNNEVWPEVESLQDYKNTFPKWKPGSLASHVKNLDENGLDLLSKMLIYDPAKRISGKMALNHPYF
Chain of CDK1/cyclin B (P14635 whole entry partner): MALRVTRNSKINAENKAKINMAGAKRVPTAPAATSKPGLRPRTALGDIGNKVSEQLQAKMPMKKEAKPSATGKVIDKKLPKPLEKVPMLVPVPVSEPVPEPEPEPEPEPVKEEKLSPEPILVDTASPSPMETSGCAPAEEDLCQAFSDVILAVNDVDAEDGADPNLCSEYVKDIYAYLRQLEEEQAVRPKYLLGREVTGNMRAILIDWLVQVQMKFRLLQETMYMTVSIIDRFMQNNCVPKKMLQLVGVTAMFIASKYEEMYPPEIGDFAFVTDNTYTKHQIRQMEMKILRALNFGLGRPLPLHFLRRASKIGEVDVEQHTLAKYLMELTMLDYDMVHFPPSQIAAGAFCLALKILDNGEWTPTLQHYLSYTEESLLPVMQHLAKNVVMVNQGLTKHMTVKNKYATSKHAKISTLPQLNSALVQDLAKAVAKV
In experiment [5] the target is CDK1/cyclin E (Homo sapiens, UniProt P06493). Put plainly: Kinase IC50, 33P labeled isotope method. To be noted: 20 μM ATP; read-out: IC50* CDK1/cyclin E.
Chain of CDK1/cyclin E (P06493 4-287 limits assumed): as the sequence (P06493 4-287 limits assumed) above
Chain of CDK1/cyclin E (P24864 whole entry partner): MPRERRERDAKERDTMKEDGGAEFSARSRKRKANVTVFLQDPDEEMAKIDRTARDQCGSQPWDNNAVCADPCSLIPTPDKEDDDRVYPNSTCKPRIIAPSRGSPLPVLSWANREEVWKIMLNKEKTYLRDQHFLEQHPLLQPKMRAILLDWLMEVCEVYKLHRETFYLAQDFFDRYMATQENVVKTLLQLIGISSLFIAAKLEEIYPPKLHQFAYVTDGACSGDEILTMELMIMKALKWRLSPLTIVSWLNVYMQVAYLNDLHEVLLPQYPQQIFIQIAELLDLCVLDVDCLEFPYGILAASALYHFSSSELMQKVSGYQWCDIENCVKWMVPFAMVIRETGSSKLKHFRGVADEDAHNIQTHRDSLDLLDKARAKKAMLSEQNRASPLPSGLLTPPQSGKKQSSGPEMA
Experiment [6] deals with CDK2/cyclin A (Homo sapiens, UniProt P24941). Put plainly: Kinase IC50, 33P labeled isotope method. To be noted: 20 μM ATP; read-out: IC50* CDK2/cyclin A.
The target of experiment [7] is CDK2/Cyclin A1 (Homo sapiens, UniProt P24941). Kind of experiment: Kinase IC50, 33P labeled isotope method. Conditions: 20 μM ATP; read-out: IC50* CDK2/Cyclin A1.
In experiment [8] the target is CDK3/cyclin E (Homo sapiens, UniProt Q00526). Kind of experiment: Kinase IC50, 33P labeled isotope method. To be noted: 20 μM ATP; read-out: IC50* CDK3/cyclin E.
Chain of CDK3/cyclin E (Q00526 4-286 limits assumed): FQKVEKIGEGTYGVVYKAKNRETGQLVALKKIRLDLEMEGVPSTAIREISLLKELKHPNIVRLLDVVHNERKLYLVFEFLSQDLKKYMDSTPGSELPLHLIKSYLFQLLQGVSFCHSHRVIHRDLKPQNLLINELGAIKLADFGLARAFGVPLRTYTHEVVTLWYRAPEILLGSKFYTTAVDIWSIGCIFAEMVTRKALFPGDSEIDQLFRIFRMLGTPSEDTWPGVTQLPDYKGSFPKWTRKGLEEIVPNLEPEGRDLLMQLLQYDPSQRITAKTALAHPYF
Chain of CDK3/cyclin E (P24864 whole entry partner): as the sequence (P24864 whole entry partner) above
Experiment [9] has as its target CDK4/cyclin D1 (Homo sapiens, UniProt P11802). Kind of experiment: Kinase IC50, 33P labeled isotope method. Conditions: 20 μM ATP; read-out: IC50* CDK4/cyclin D1.
Experiment [10] has as its target CDK5/p35 (Homo sapiens, UniProt Q00535). Kind of experiment: Kinase IC50, 33P labeled isotope method. To be noted: 20 μM ATP; read-out: IC50* CDK5/p35.
Experiment [11] deals with CDK7/cyclin H (Homo sapiens, UniProt P50613). Put plainly: Kinase IC50, 33P labeled isotope method. To be noted: 20 μM ATP; read-out: IC50* CDK7/cyclin H.
Chain of CDK7/cyclin H (P50613 12-295 limits assumed): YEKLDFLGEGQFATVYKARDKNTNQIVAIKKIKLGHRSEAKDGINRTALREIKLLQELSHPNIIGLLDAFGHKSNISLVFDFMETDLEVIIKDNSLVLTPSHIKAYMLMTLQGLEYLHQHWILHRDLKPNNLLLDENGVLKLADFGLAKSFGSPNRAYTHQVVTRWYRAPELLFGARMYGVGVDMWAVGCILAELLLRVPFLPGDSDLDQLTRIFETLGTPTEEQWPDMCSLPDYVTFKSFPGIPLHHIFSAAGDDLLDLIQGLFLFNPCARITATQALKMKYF
Chain of CDK7/cyclin H (P51946 whole entry partner): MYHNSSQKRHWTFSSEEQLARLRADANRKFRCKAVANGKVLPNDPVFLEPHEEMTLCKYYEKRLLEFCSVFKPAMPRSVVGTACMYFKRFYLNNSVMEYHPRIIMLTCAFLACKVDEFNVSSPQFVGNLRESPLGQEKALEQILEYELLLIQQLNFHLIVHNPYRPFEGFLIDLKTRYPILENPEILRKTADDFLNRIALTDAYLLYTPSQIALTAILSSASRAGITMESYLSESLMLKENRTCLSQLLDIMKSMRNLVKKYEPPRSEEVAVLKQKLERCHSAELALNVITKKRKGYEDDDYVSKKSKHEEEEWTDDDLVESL
Chain of CDK7/cyclin H (P51948 whole entry partner): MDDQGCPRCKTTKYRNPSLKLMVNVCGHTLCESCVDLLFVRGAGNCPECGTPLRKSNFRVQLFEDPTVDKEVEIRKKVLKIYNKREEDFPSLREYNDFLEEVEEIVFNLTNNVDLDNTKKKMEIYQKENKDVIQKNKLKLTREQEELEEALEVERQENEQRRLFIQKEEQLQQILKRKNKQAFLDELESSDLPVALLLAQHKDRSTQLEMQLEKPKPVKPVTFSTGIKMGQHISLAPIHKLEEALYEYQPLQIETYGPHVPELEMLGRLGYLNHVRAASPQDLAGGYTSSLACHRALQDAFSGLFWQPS
Experiment [12] has as its target T3, ERK7/MAPK15 (Homo sapiens, UniProt Q8TD08).
T3 sequence (Q8TD08 13-304 limits assumed): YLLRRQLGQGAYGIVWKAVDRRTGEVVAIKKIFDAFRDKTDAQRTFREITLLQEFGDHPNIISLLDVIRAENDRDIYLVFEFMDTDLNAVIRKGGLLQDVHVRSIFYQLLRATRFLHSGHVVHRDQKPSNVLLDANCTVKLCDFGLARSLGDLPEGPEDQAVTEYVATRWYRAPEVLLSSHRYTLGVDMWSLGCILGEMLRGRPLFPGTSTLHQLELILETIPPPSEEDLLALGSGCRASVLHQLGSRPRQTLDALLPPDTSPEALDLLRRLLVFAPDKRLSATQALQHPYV
Put plainly: Kinase IC50, 33P labeled isotope method. To be noted: 20 μM ATP; read-out: IC50* ERK7/MAPK15.

For experiment [13], the target named is FGFR1 (Homo sapiens, UniProt P11362). Kind of experiment: Kinase IC50, 33P labeled isotope method. To be noted: 20 μM ATP; read-out: IC50* FGFR1.
Chain of FGFR1 (P11362 478-767 limits assumed): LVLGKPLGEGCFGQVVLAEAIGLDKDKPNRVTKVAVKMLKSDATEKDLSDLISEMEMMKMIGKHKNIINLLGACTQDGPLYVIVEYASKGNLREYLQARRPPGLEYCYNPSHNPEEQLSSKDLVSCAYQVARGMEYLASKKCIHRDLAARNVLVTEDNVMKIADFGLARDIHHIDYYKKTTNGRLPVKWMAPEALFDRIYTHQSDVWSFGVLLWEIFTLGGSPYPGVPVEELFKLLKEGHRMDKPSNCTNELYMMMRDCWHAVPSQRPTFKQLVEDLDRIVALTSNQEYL
For experiment [14], the target named is FGFR2 (Homo sapiens, UniProt P21802). Kind of experiment: Kinase IC50, 33P labeled isotope method. Conditions: 20 μM ATP; read-out: IC50* FGFR2.
Experiment [15] concerns the target FGFR3 (Homo sapiens, UniProt P22607). Kind of experiment: Kinase IC50, 33P labeled isotope method. Conditions: 20 μM ATP.
Experiment [16] deals with T4, FLT1/VEGFR1 (Homo sapiens, UniProt P17948).
T4 sequence (P17948 827-1158 limits assumed): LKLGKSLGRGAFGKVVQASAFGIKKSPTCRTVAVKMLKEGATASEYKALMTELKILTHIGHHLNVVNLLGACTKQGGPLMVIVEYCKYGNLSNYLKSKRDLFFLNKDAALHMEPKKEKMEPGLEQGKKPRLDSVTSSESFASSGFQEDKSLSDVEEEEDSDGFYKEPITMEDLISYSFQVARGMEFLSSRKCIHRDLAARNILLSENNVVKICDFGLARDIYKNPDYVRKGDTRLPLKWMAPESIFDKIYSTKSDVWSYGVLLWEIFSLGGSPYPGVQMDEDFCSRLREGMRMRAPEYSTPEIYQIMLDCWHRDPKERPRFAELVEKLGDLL
Kind of experiment: Kinase IC50, 33P labeled isotope method. Conditions: 20 μM ATP; read-out: IC50* FLT1/VEGFR1.

Experiment [17] addresses JAK2 (Homo sapiens, UniProt O60674). Kind of experiment: Kinase IC50, 33P labeled isotope method. Conditions: 20 μM ATP; read-out: IC50* JAK2.
The target of experiment [18] is JNK1 (Homo sapiens, UniProt P45983). Put plainly: Kinase IC50, 33P labeled isotope method. Conditions: 20 μM ATP; read-out: IC50* JNK1.
Chain of JNK1 (P45983 26-321 limits assumed): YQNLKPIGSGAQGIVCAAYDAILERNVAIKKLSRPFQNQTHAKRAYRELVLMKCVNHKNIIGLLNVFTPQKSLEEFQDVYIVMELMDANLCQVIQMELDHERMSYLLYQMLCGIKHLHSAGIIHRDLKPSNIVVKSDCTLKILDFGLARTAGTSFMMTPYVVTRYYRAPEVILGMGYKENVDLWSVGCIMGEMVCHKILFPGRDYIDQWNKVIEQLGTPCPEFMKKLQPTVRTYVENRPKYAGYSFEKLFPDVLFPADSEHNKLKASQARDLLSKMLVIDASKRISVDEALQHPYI
Experiment [19] concerns the target JNK2 (Homo sapiens, UniProt P45984). Put plainly: Kinase IC50, 33P labeled isotope method. Conditions: 20 μM ATP; read-out: IC50* JNK2.
The target in experiment [20] is KDR/VEGFR2 (Homo sapiens, UniProt P35968). Put plainly: Kinase IC50, 33P labeled isotope method. To be noted: 20 μM ATP; read-out: IC50* KDR/VEGFR2.
Chain of KDR/VEGFR2 (P35968 834-1162 limits assumed): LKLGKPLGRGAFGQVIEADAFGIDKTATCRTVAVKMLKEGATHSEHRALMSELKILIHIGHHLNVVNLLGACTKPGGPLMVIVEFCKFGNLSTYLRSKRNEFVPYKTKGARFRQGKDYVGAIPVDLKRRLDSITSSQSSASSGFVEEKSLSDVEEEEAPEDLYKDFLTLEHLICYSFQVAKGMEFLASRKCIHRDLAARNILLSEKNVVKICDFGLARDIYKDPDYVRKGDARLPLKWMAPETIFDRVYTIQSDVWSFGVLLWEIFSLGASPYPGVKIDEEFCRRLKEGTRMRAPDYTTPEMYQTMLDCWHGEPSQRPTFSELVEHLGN

Chain of JNK2 (P45984 26-321 limits assumed): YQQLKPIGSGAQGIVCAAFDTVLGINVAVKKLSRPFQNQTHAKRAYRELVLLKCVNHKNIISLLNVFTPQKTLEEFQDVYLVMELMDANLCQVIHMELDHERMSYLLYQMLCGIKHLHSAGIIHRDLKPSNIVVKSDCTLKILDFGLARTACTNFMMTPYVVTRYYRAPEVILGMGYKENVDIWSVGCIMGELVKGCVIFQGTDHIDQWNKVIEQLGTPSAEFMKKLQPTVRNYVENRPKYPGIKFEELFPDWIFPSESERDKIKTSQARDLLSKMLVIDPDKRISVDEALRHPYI
Chain of CDK5/p35 (Q00535 4-286 limits assumed): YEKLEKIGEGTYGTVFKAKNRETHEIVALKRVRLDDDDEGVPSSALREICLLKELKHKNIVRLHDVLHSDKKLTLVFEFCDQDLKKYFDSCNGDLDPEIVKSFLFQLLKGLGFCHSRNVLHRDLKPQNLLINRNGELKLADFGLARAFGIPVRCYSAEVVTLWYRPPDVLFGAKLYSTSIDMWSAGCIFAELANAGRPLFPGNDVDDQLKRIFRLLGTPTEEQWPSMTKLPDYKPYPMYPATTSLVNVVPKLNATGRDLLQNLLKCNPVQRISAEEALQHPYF
Chain of CDK5/p35 (Q15078 whole entry partner): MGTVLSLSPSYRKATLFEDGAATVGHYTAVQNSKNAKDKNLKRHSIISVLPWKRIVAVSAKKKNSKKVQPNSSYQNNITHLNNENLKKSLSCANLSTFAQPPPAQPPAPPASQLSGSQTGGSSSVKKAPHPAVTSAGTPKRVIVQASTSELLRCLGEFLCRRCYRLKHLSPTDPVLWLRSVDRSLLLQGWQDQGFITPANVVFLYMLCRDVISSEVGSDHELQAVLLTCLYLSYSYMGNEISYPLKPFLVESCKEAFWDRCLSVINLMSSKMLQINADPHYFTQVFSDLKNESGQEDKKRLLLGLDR
Chain of FGFR3 (P22607 472-761 limits assumed): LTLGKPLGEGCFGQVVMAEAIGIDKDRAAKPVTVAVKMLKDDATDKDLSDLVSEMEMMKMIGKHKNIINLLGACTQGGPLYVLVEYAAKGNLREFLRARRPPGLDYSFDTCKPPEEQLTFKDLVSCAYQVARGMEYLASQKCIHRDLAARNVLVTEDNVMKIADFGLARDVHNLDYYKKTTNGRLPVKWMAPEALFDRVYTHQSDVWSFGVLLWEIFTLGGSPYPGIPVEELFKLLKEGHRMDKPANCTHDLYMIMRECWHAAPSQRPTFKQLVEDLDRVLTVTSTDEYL

As for `Cc1cc2c(Nc3c[nH]nc3C(=O)Nc3ccc(CN4CCN(C)CC4)cc3)nccc2s1` [Compound I-27, 4-(4-(2-methylthieno[3,2-c]pyridyl)amino)-N-(4-((4-methyl-1-piperazinyl)methyl)phenyl)-1H-3-pyrazolecarboxamide], the inhibition at 1 µM in [1] was 72.6%; in experiment [2] it was 67.8%. In addition, the IC50 came to 164 nM in [3]; 91 nM in experiment [4]; 100 nM in experiment [5]; 16 nM in [6]; 10 nM in experiment [7]; 198 nM in experiment [8]. The IC50 amounted to 7 nM in experiment [9]; 15 nM in experiment [10]; 575 nM in experiment [11]; 8 nM in [12]; 316 nM in experiment [13]; 242 nM in experiment [14]. The IC50 in [15] was determined as 841 nM; in [16], 22 nM; in experiment [17] it was 826 nM; in [18] it was 1330 nM; in experiment [19] it was 1380 nM; in experiment [20], 38 nM.
